Test systems include MCF7 breast; HOP-92 NSCLC; CAKI-1 renal; HCC-2998 colon; SN12C renal; UACC-62 melanoma; HOP-62 NSCLC; U251 CNS; KM12 colon; A549 NSCLC.
Assay in all cases: NCI anticancer screen, dose series, 48 h

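The compound was tested at five concentrations on cells cultured in 96-well plates, with a 48-hour exposure period. At the TGI there is no net growth.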

In the case of `COC1(OC)CC(CO)(COc2cc(Cl)nc(N)n2)C1`, the TGI in the test on MCF7 breast, in the test with HOP-92 NSCLC, in the test on CAKI-1 renal, in the test with HCC-2998 colon, in the test with SN12C renal and in the test on UACC-62 melanoma was more than 100 µM in each case. Also, the TGI in the test on HOP-62 NSCLC, in the test on U251 CNS, in the test on KM12 colon and in the test with A549 NSCLC was more than 100 µM in each case.
`CCCCCCCCCCCC(=O)N(CCCCCCCCC)CC(O)C(O)C(OC1OC(CO)C(O)C(O)C1O)C(O)CO` (stereo not given): the TGI is more than 100 µM in the test on MCF7 breast; 34.4 µM with HOP-92 NSCLC; 35.5 µM with CAKI-1 renal; 32 µM in the test with HCC-2998 colon; 36.1 µM in the test on SN12C renal; 34.1 µM in the test on UACC-62 melanoma. Also, the TGI was found to be 38.9 µM in the test on HOP-62 NSCLC, 35.5 µM in the test on U251 CNS, 31.2 µM in the test on KM12 colon and 43.5 µM in the test on A549 NSCLC.
Turning to `CN(C)C(=O)N1N[C@H](c2ccccc2)[C@@H]1c1ccccc1`, the TGI with MCF7 breast, in the test with HOP-92 NSCLC, in the test with CAKI-1 renal, in the test on HCC-2998 colon, in the test on SN12C renal and with UACC-62 melanoma was more than 100 µM throughout. The TGI in the test with HOP-62 NSCLC, with U251 CNS, with KM12 colon and in the test on A549 NSCLC was more than 100 µM throughout.
For the molecule `Cc1cc2nc3c(C#N)c(C)c(CCCl)c(Cl)n3c2cc1C`, the TGI in the test with MCF7 breast was 8.64 µM; in the test with HOP-92 NSCLC it was 4.76 µM; in the test with CAKI-1 renal, 9.43 µM; in the test with HCC-2998 colon it was 6.23 µM; with SN12C renal it was 3.63 µM; in the test on UACC-62 melanoma, 4.12 µM. Also, the TGI in the test on HOP-62 NSCLC was 4.64 µM; with U251 CNS, more than 60.9 µM; in the test on KM12 colon it was 14.4 µM; in the test with A549 NSCLC, 17.7 µM.
As to `O=C1CCCC1CC(CN1CCOCC1)Sc1nnnn1-c1ccccc1` (stereo not given), the TGI with MCF7 breast was more than 100 µM; in the test with HOP-92 NSCLC it was more than 100 µM; in the test on CAKI-1 renal it was 79.1 µM; in the test with HCC-2998 colon, more than 100 µM; with SN12C renal it was more than 100 µM; in the test with UACC-62 melanoma, more than 100 µM. Moreover, the TGI in the test on HOP-62 NSCLC, with U251 CNS, in the test with KM12 colon and in the test on A549 NSCLC was more than 100 µM each time.
Take `O=[N+]([O-])c1c(O)c2nonc2c2nn(-c3ccccc3)nc12`: the TGI in the test with MCF7 breast, in the test with HOP-92 NSCLC, in the test with CAKI-1 renal, with HCC-2998 colon, with SN12C renal and in the test on UACC-62 melanoma was more than 100 µM each time. Moreover, the TGI in the test with HOP-62 NSCLC, with U251 CNS, in the test with KM12 colon and with A549 NSCLC was more than 100 µM in each case.
Turning to `Cc1cnc2c(c1)C(=O)N(c1ccc(Oc3ccccc3)cc1)S2(=O)=O`, the TGI with MCF7 breast, in the test with HOP-92 NSCLC, in the test on CAKI-1 renal, with HCC-2998 colon, in the test on SN12C renal and in the test with UACC-62 melanoma was more than 100 µM in each case. The TGI in the test with HOP-62 NSCLC, in the test with U251 CNS, in the test on KM12 colon and with A549 NSCLC was more than 100 µM in each case.
For the molecule `Cc1ccc(C)n1-c1ccccc1C1C=Cn2c(=O)oc3c(OC(C)C)c(OC(C)C)c(O)c1c32` (stereo not given), the TGI in the test on MCF7 breast, in the test with HOP-92 NSCLC, in the test on CAKI-1 renal, in the test with HCC-2998 colon, in the test on SN12C renal and in the test on UACC-62 melanoma was more than 100 µM in each case. For the same molecule, the TGI in the test on HOP-62 NSCLC, with U251 CNS, with KM12 colon and in the test with A549 NSCLC was more than 100 µM throughout.

For the origin of these results see PubChem BioAssay (NCI).
